Measured values: patent US10174029B2, “Pyrimidine-2,4-diamine derivatives for treatment of cancer” (THOMAS HELLEDAYS STIFTELSE FOR MEDICINSK FORSKNING, priority 2012, dated 2019)

Biological target: MTH1 (Homo sapiens, UniProt P36639)
Test: MTH1 enzymatic assay and IC50 value determination (malachite green)
Assay type: biochemical
Conditions: MTH1 4.8 nM, dGTP 100 μM, 15 minutes at 22° C.
How it was run: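 Malachite green detection of Pi after coupling dGTP hydrolysis to excess E. coli pyrophosphatase; 4.8 nM MTH1, 100 μM dGTP in Tris-acetate buffer with Mg2+ and DTT, 1% DMSO, 15 min at 22 °C. 12-point 1:3 compound series; absorbance at 630 nm; IC50 by four-parameter nonlinear regression.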

IC50 (group: less than 200 nM)	IC50 (group: between 2 μM and 10 μM)	Compound
< 200 nM	–	Cc1cccc(-c2cc(NCCCNS(=O)(=O)c3cn(C)c(C)n3)nc(N)n2)c1C [Example 391, N-(3-{[2-Amino-6-(2,3-dimethylphenyl)pyrimidin-4-yl]amino}propyl)-1,2-dimethyl-1H-imidazole-4-sulfonamide]
–	2000 to 10000 nM	CCOC(=O)CNc1cc(-c2cccc(C)c2C)nc(N)n1 [Example 396, Ethyl 2-{[2-amino-6-(2,3-dimethylphenyl)pyrimidin-4-yl]amino}acetate]
< 200 nM	–	Cc1cccc(-c2cc(NCCNc3ccc(C#N)cn3)nc(N)n2)c1C [Example 397, 6-[(2-{[2-Amino-6-(2,3-dimethylphenyl)pyrimidin-4-yl]amino}ethyl)amino]pyridine-3-carbonitrile]
–	2000 to 10000 nM	Cc1nnc(CNc2cc(-c3cccc(C)c3C)nc(N)n2)[nH]1 [Example 399, 6-(2,3-Dimethylphenyl)-4-N-[(5-methyl-4H-1,2,4-triazol-3-yl)methyl]pyrimidine-2,4-diamine]
< 200 nM	–	Cc1cccc(-c2cc(NCCCNS(=O)(=O)c3cccc(S(C)(=O)=O)c3)nc(N)n2)c1C [Example 402, N-(3-{[2-Amino-6-(2,3-dimethylphenyl)pyrimidin-4-yl]amino}propyl)-3-methanesulfonylbenzene-1-sulfonamide]
< 200 nM	–	Cc1cccc(-c2cc(NCCCNS(=O)(=O)c3ccccc3S(C)(=O)=O)nc(N)n2)c1C [Example 403, N-(3-{[2-Amino-6-(2,3-dimethylphenyl)pyrimidin-4-yl]amino}propyl)-2-methanesulfonylbenzene-1-sulfonamide]
< 200 nM	–	Cc1ncsc1CCNc1cc(-c2cccc(Cl)c2Cl)nc(N)n1 [Example 405, 6-(2,3-dichlorophenyl)-4-N-[2-(4-methyl-1,3-thiazol-5-yl)ethyl]pyrimidine-2,4-diamine]
< 200 nM	–	Cc1ncsc1CCNc1cc(-c2cccc(Cl)c2C)nc(N)n1 [Example 406, 6-(3-chloro-2-methylphenyl)-4-N-[2-(4-methyl-1,3-thiazol-5-yl)ethyl]pyrimidine-2,4-diamine]
< 200 nM	–	Cc1cccc(-c2cc(NCCc3c[nH]cn3)nc(N)n2)c1C [Example 408, 6-(2,3-dimethylphenyl)-4-N-[2-(1H-imidazol-4-yl)ethyl]pyrimidine-2,4-diamine]
< 200 nM	–	Cc1cccc(-c2cc(NCCCc3nc4ccccc4[nH]3)nc(N)n2)c1C [Example 409, 4-N-[3-(1H-1,3-benzodiazol-2-yl)propyl]-6-(2,3-dimethylphenyl)pyrimidine-2,4-diamine]
< 200 nM	–	Cc1cccc(-c2cc(NCc3cnc(-c4ccccc4)s3)nc(N)n2)c1C [Example 411, 6-(2,3-dimethylphenyl)-4-N-[(2-phenyl-1,3-thiazol-5-yl)methyl]pyrimidine-2,4-diamine]
< 200 nM	–	CN(C)S(=O)(=O)c1ccc(CCNc2cc(-c3cccc(Cl)c3Cl)nc(N)n2)cc1 [Example 415, 4-(2-{[2-amino-6-(2,3-dichlorophenyl)pyrimidin-4-yl]amino}ethyl)-N,N-dimethylbenzene-1-sulfonamide]
< 200 nM	–	Cc1cccc(-c2cc(NCCc3ccc(S(=O)(=O)N(C)C)cc3)nc(N)n2)c1C [Example 416, 4-(2-{[2-amino-6-(2,3-dimethylphenyl)pyrimidin-4-yl]amino}ethyl)-N,N-dimethylbenzene-1-sulfonamide]
< 200 nM	–	Nc1nc(NC2CC2)cc(-c2ccc(Cl)c(Cl)c2Cl)n1 [Example 418, 4-N-Cyclopropyl-6-(2,3,4-trichlorophenyl)pyrimidine-2,4-diamine]
< 200 nM	–	Nc1nc(NCCc2ccc(Cl)cc2)cc(-c2ccc(Cl)c(Cl)c2Cl)n1 [Example 419, 4-N-[2-(4-Chlorophenyl)ethyl]-6-(2,3,4-trichlorophenyl)pyrimidine-2,4-diamine]
< 200 nM	–	[2H]C([2H])([2H])Nc1cc(-c2cccc(C)c2C)nc(N)n1 [Example 420, 6-(2,3-dimethylphenyl)-4-N—(^2H3)methylpyrimidine-2,4-diamine]
< 200 nM	–	[2H]C([2H])([2H])Nc1cc(-c2cccc(C)c2Cl)nc(N)n1 [Example 422, 6-(2-chloro-3-methylphenyl)-4-N—(^2H3)methylpyrimidine-2,4-diamine]
< 200 nM	–	Cc1cccc(-c2cc(NCCCCNS(=O)(=O)c3ccc(S(C)(=O)=O)cc3)nc(N)n2)c1C [Example 424, N-(4-{[2-amino-6-(2,3-dimethylphenyl)pyrimidin-4-yl]amino}butyl)-4-methanesulfonylbenzene-1-sulfonamide]
< 200 nM	–	Cc1c(C#N)cccc1-c1cc(NCCc2ccc(S(N)(=O)=O)cc2)nc(N)n1 [Example 426, 4-(2-{[2-amino-6-(3-cyano-2-methylphenyl)pyrimidin-4-yl]amino}ethyl)benzene-1-sulfonamide]
< 200 nM	–	Cc1c(-c2cc(NCCc3ccc(S(N)(=O)=O)cc3)nc(N)n2)ccc(Cl)c1Cl [Example 428, 4-(2-{[2-amino-6-(3,4-dichloro-2-methylphenyl)pyrimidin-4-yl]amino}ethyl)benzene-1-sulfonamide]
< 200 nM	–	C#CCNc1cc(-c2cccc(Cl)c2C)nc(N)n1 [Example 429, 6-(3-chloro-2-methylphenyl)-4-N-(prop-2-yn-1-yl)pyrimidine-2,4-diamine]
< 200 nM	–	Cc1c(F)ccc(-c2cc(NCCc3ccc(S(C)(=O)=O)cc3)nc(N)n2)c1C [Example 430, 6-(4-fluoro-2,3-dimethylphenyl)-4-N-[2-(4-methanesulfonylphenyl)ethyl]pyrimidine-2,4-diamine]
< 200 nM	–	Cc1cc(Cl)ccc1-c1cc(NCCc2ccc(S(N)(=O)=O)cc2)nc(N)n1 [Example 432, 4-(2-{[2-amino-6-(4-chloro-2-methylphenyl)pyrimidin-4-yl]amino}ethyl)benzene-1-sulfonamide]
< 200 nM	–	Nc1nc(NCCc2ccc(S(N)(=O)=O)cc2)cc(-c2ccc(F)c(F)c2F)n1 [Example 434, 4-(2-{[2-amino-6-(2,3,4-trifluorophenyl)pyrimidin-4-yl]amino}ethyl)benzene-1-sulfonamide]
< 200 nM	–	Cc1c(F)ccc(-c2cc(NC3CC3)nc(N)n2)c1C [Example 436, 4-N-cyclopropyl-6-(4-fluoro-2,3-dimethylphenyl)pyrimidine-2,4-diamine]
< 200 nM	–	Cc1cc(-c2cc(NCCc3ccc(S(N)(=O)=O)cc3)nc(N)n2)c(C)cc1F [Example 439, 4-(2-{[2-amino-6-(4-fluoro-2,5-dimethylphenyl)pyrimidin-4-yl]amino}ethyl)benzene-1-sulfonamide]
< 200 nM	–	Cc1cccc(-c2cc(NCCNc3ccc(S(N)(=O)=O)cn3)nc(N)n2)c1C [Example 443, 6-[(2-{[2-amino-6-(2,3-dimethylphenyl)pyrimidin-4-yl]amino}ethyl)amino]pyridine-3-sulfonamide]
< 200 nM	–	Cc1cccc(-c2cc(NCCCNS(=O)(=O)c3ccc(S(N)(=O)=O)cc3)nc(N)n2)c1C [Example 444, 1-N-(3-{[2-amino-6-(2,3-dimethylphenyl)pyrimidin-4-yl]amino}propyl)benzene-1,4-disulfonamide]
< 200 nM	–	CS(=O)(=O)c1ccc(CCNc2cc(-c3cccc(Cl)c3Cl)nc(N)n2)cc1 [Example 445, 6-(2,3-dichlorophenyl)-4-N-[2-(4-methanesulfonylphenyl)ethyl]pyrimidine-2,4-diamine]
